Measured values as given in patent US9572833B2, “Treatment of red blood cells” (The General Hospital Corporation, priority 2011, dated 2017).

Tests used:
NOS = experiment: Partial inhibition of NOS by L-NAME in lambs (acetylcholine / sodium nitroprusside vasodilation, hemodynamics); assay type: in vivo
Description: (§1) Three additional groups of lambs were studied after intravenous infusion of the NOS inhibitor, N^G-nitro-L-arginine methyl-ester (L-NAME, Sigma-Aldrich, St. Louis, Mo.). A bolus of 25 mg/kg L-NAME was injected IV 1 h before transfusion (Weimann et al., Anesthesiology 2000; 92:1702-12). Concomitantly, an infusion of 5 mg/kg/h L-NAME was started and continued throughout the study. […] NOS-independent systemic vasodilation was also assessed by intravenous injection of sodium nitroprusside (Sigma-Aldrich) at the end of each experiment.

supernatant hemoglobin [1] = target: T1, supernatant hemoglobin (Homo sapiens, UniProt P68871+P69905); experiment: MAHMA/NO treatment of human stored red blood cells; assay type: biochemical; conditions: human RBC stored 46 days
T1 construct: 99% of the supernatant hemoglobin being oxidized to methemoglobin; from tissue; host or cells: human stored red blood cells (46 days), supernatant and cells
Description: Human stored red blood cells (stored, 46 days) were treated with MAHMA/NO ((Z)-1-[N-Methyl-N-[6-(N-methylammoniohexyl)amino]]diazen-1-ium-1,2-diolate). […] In contrast, only 15% of the red blood cell hemoglobin was oxidized by this treatment (FIG. 14A).

supernatant hemoglobin [2] = target: T2, supernatant hemoglobin (Mus musculus, UniProt P01942+P02088); experiment: MAHMA/NO treatment of murine stored red blood cells; assay type: biochemical; conditions: murine RBC stored 14 days
T2 construct: from tissue; host or cells: murine stored red blood cells (14 days), supernatant
Excerpt: This is likely due to the higher levels of hemolysis observed in murine red blood cell storage. At baseline levels, hemolysis is higher than in human stored red blood cells, and increasing concentrations of MAHMA/NO were required to fully oxidize the […] hemoglobin.

[3] = Tail-cuff systolic blood pressure in db/db mice after infusion of MAHMA/NO pre-treated stored red blood cells; assay type: in vivo; conditions: SRBC pre-treated with 1 mM MAHMA/NO; awake db/db mice
Description: Murine stored red blood cells were pretreated with 1 mM MAHMA before infusion into db/db mice.

[4] = Non-invasive measurement of systolic blood pressure in awake mice after transfusion; assay type: in vivo; conditions: awake db/db mice; 80 ppm from 10 min prior to transfusion until 2 h after
Description: Systolic blood pressure was measured with a non-invasive blood pressure system (XBP 1000, Kent Scientific, Torrington, Conn.) (Yu et al., Circulation 2008; 117: 1982-90; Yu et al., Anesthesiology 2010; 112: 586-94). All tail vein injections were performed over one minute.

[5] = Hemodynamic effects of PRBC transfusion in awake lambs; assay type: in vivo; conditions: 80 ppm during transfusion and 30 min thereafter, no L-NAME
Description: (§2) Invasive hemodynamic measurements were performed in 28 lambs. Anesthesia was induced by breathing 5% isoflurane (Baxter, Deerfield, Ill.) in oxygen via mask. After endotracheal intubation, animals underwent a tracheostomy and were instrumented with indwelling carotid artery and pulmonary artery catheters, as previously described (Yu et al., Anesthesiology 2010; 112:586-94). After a 2-h recovery period from general anesthesia in a large-animal restraint unit (Lomir, Malone, N.Y.), the mean arterial pressure (MAP), mean pulmonary arterial pressure (PAP), and central venous pressure were monitored continuously using a Gould 6600 amplifier system (Gould Electronics, Inc., Eastlake, Ohio). Pulmonary capillary wedge pressure (PCWP) and heart rate were intermittently measured every 10-30 min. Cardiac output was assessed by thermal dilution as the average of three measurements after intravenous bolus-injection of 10 ml ice-cold saline solution. Systemic vascular resistance index and pulmonary vascular resistance index (PVRI), as well as cardiac index, were calculated using standard formulae. Hemodynamic data was collected until 4 h after the end of transfusion.
Six groups of awake lambs were studied. […]

[6] = Hemodynamic effects of PRBC transfusion in lamb model of L-NAME-induced endothelial dysfunction; assay type: in vivo; conditions: lambs pretreated with L-NAME
Description: as §2, §1
After L-NAME treatment, a fourth group of lambs (n=4) received fresh PRBCs, and a fifth group (n=5) received stored PRBCs. In the sixth group (n=4), following L-NAME injection, inhalation of 80 ppm nitric oxide at FiO2 0.25 was commenced 10 min prior to transfusion of stored PRBC. Nitric oxide breathing continued throughout the transfusion and for 30 min after transfusion ended.

human hemoglobin = target: T3, human hemoglobin (Homo sapiens, UniProt P68871+P69905); experiment: Methemoglobin conversion after nitric oxide gas treatment of red blood cells via membrane gas exchanger; assay type: biochemical; conditions: 2600 ppm nitric oxide in nitrogen, single pass
T3 construct: from tissue; host or cells: human red blood cells (adsol-preserved) plus plasma with added human hemoglobin
Description: Plasma containing added human hemoglobin was added to adsol-preserved human red blood cells. The red blood cells were pumped (at flow rates of 5, 7.5, and 10 ml/min) through a membrane gas exchanger (Living Systems instrumentation Inc., St. Albans, Vt.), which exposed the cells (on a single pass through the gas exchanger) to 2600 ppm nitric oxide gas in nitrogen.

[7] = 25 mg/kg IV bolus plus 5 mg/kg/h infusion

T1 sequence (P69905 2-142 limits assumed): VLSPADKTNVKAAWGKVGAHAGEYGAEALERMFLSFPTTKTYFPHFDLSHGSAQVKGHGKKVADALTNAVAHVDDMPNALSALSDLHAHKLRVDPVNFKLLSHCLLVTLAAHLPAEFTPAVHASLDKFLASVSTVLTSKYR
T1 sequence (P68871 2-147 limits assumed): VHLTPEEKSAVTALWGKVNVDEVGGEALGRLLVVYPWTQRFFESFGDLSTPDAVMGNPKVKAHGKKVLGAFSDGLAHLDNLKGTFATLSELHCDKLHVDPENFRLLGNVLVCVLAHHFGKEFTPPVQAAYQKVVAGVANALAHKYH
T2 sequence (P01942 2-142 limits assumed): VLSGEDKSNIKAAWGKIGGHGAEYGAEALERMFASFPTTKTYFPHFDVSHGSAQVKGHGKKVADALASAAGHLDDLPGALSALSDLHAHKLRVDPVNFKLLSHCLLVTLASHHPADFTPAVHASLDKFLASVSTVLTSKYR
T2 sequence (P02088 2-147 limits assumed): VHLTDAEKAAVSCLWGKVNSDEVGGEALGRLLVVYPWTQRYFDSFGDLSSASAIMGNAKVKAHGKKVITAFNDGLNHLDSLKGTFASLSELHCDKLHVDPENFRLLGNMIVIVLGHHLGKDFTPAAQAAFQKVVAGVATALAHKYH
T3 sequence (P69905 2-142 limits assumed): as the sequence (P69905 2-142 limits assumed) above
T3 sequence (P68871 2-147 limits assumed): as the sequence (P68871 2-147 limits assumed) above

SMILES: COC(=O)[C@@H](N)CCCNC(=N)N[N+](=O)[O-] [L-NAME, N^G-nitro-L-arginine methyl-ester]
- Reduction in the ability of acetylcholine infusion to induce systemic vasodilation (NOS; [7]): 50%
- Vasodilator response to intravenous bolus of sodium nitroprusside (NOS; [7]): did not alter the vasodilator response
- Cardiac index and heart rate after L-NAME infusion (NOS; awake lambs): decreased
- MAP, PAP, central venous pressure, PCWP, systemic and pulmonary vascular resistance indices after L-NAME infusion (NOS; awake lambs): increased

SMILES: CNCCCCCCN(C)/[N+]([O-])=N/O [MAHMA/NO, (Z)-1-[N-Methyl-N-[6-(N-methylammoniohexyl)amino]]diazen-1-ium-1,2-diolate]
- Red blood cell hemoglobin oxidized (supernatant hemoglobin [1]; 0.5 mM): 15%
- Supernatant hemoglobin oxidized to methemoglobin (supernatant hemoglobin [1]; 0.5 mM): 99%
- Hemolysis after addition of MAHMA/NO (supernatant hemoglobin [1]): no further hemolysis
- Supernatant methemoglobin (supernatant hemoglobin [2]; 1 mM): 70%
- Level of cell-free hemoglobin in the supernatant (supernatant hemoglobin [2]): decreases upon addition of MAHMA/NO
- Hypertensive effect caused by infusion of stored red blood cells [3]: attenuated the hypertensive effect

SMILES: [N]=O [nitric oxide]
- Effect of breathing nitric oxide on systemic hypertension induced by SRBC transfusion [4]: completely prevented the systemic hypertension
- PAP with transfusion of stored PRBCs while breathing nitric oxide ([5]; baseline 12±1): 13±1 mmHg
- PVRI with transfusion of stored PRBCs while breathing nitric oxide ([5]; baseline 107±14): 105±22 dyn·sec·cm^−5·m^−2
- Effect of inhalation of nitric oxide on MAP ([6]; 80 ppm): did not alter MAP
- Effect of concurrent inhalation of nitric oxide on PAP and PVRI ([6]; 80 ppm, stored PRBC transfusion): reduced the PAP and PVRI to baseline
- Time after end of nitric oxide breathing at which PAP and PVRI returned to pre-transfusion levels [6]: 60 min
- Human red cell hemoglobin converted to methemoglobin (human hemoglobin): only a few percent
- Supernatant oxyhemoglobin converted to methemoglobin (human hemoglobin; flow 5, 7.5, 10 ml/min, adsol-preserved human RBC): approximately 50%
